Results from patent publication EP0260606A2, “Medicament for curing neurotic disturbance or disorder comprising sialocylglycerolipid” (MECT CORPORATION, priority 1986, dated 1988).
“And” between values parts separate entries of the source, which are not always exact repeats. Identical values can stand only once.

How the values were obtained:
[1] = system: neuroblastoma cell Neuro2a; experiment: Effect on the neuroblastoma cell Neuro2a (formation and growth of axis-cylinder process); type: cell-based; conditions: for Length of Axis-cylinder Process / Number of Axis-cylinder Process: average ± S.E.
Experimental: The nervous cell used in the test was neuroblastoma cell Neuro2a which is readily available and can be cultured in a relatively simple manner.
Neuro2a was floated on a culture medium containing fetal cattle serum (hereinafter referred to as FCS), the culture medium consisting of 90% of Dubecco's Modified Eagle's Medium (hereinafter referred to as MEM) and l0% of FCS and added with l00 U/ml of penicillin G and l00 µg/ml of streptomycin sulfate, and cultured in a carbon dioxide cultivator at 37°C in an air containing 5% of carbon dioxide. The containers used were 60 mm polystyrene dishes, and each of the containers was incubated with l to 2 × l0⁴ cells followed by culturing for 48 hours prior to the test. […] After the lapse of 24 hours and 48 hours, the increase in cells formed with axis-cylinder process, the increase in number of axis-cylinder processes and the elongation of the length of the axis-cylinder process were measured.
The test was conducted while using three dishes for each concentration of each test material.

[2] = system: rat having its nigral depaminergic neuron destroyed; experiment: Methamphethamine-induced rotational movement after 6-hydroxydopamine lesion and fetal dopaminergic cell transplantation; type: in vivo; conditions: for Average of Rotational Movement of Rats (Average + S.D.): group average, 30 mg/kg; for Number of Rotational Movement of Rats: individual rat, 30 mg/kg every day for two weeks from transplantation, listed as Ganglioside GM1, 30 mg/kg
Source text: The nigral dopaminergic neuron of the brain of a rat was chemically destroyed by injecting a very small quantity of 6-hydroxydopamine to cause motor disturbance.
After the lapse of two weeks, a fetal brain dopaminergic cell was transplanted on the Nucleus caudatus of the rat brain to try to remedy the motor disturbance.
The nigral depaminergic neuron at the left side of the brain of a female Wister family rat aged 4-weeks (Body Weight: l00 g) was destroyed by injecting a very small quantity of 6-hydroxydopamine.
After two weeks from the destruction by the administration of the drug, portions of the […] containing dopamin cells (i.e. substantia nigra and the Tegmentum at the abdomen side) were extracted from the fetal rat brain of a fetal rat of l4 to l7 days age, cut finely, and treated with trypsin. Then, the extracted tissues were incubated at 37°C for 30 minutes, and the tissues were subjected to pipetting to form a suspension. 5 µl each of the suspensions were transplanted on two sites of the Nucleus caudatus of the destructed side, the total of l0 µl (containing about l0⁵ cells) being transplanted.
The rotational movements caused by administration of methamphethamine were examined at the time point before 2 weeks of the transplantation (- 2W), at the time point before one week of the transplantation (- lW) and at the time point after two weeks of the transplantation (2W). The number of rotational movements within one minute were counted at l0 minute intervals after six administrations of methamphethamine, and the total number of rotational movements counted for the six times was averaged to find the mean rotational movement. As controls, the numbers of rotational movements of the rats administered, respectively, with a ganglioside mixture and GM₁ ganglioside were counted.

[3] = - 1W (before transplantation and dosing)
[4] = - 2W (before transplantation and dosing)

In the case of “(NAcNeu(α2-8) NAcNeu(α2-3))-Gal(ßl-3)GalNAc(ßl-4)(NAcNeu(α2-8)NAcNeu(α-2-3))-Gal(ßl-4)Glc(ßl-l) [GQ1b]”, the “Number of Cells Formed with Axis-cylinder Process” value (“Number of Cells Formed” for short) ([1]; 24 hours, 0.01 µg/ml) is reported as 174, the “Ratio of Cells Formed with Axis-cylinder Process” value (“Ratio of Cells Formed” for short) ([1]; 24 hours, 0.01 µg/ml) is reported as 51.8% and the “Total Number of Cells” value ([1]; 24 hours, 0.01 µg/ml) is reported as 336. For the same substance, the “Length of Axis-cylinder Process” value ([1]; 24 hours, 0.01 µg/ml) was 88.5 ± 5.00 µm/cell, the “Number of Axis-cylinder Process” value ([1]; 24 hours, 0.01 µg/ml) was 1.3 ± 0.05 per cell and the “Number of Cells Formed” value ([1]; 24 hours, 0.1 µg/ml) was 159. For the same substance, the “Ratio of Cells Formed” value ([1]; 24 hours, 0.1 µg/ml) was 58.0%, the “Total Number of Cells” value ([1]; 24 hours, 0.1 µg/ml) was 331 and the “Length of Axis-cylinder Process” value ([1]; 24 hours, 0.1 µg/ml) was 86.0 ± 4.72 µm/cell. For the same substance, the “Number of Axis-cylinder Process” value ([1]; 24 hours, 0.1 µg/ml) was 1.3 ± 0.04 per cell, the “Number of Cells Formed” value ([1]; 24 hours, 1 µg/ml) was 157 and the “Ratio of Cells Formed” value ([1]; 24 hours, 1 µg/ml) was 51.0%. For the same substance, the “Total Number of Cells” value ([1]; 24 hours, 1 µg/ml) was 308, the “Length of Axis-cylinder Process” value ([1]; 24 hours, 1 µg/ml) was 97.6 ± 4.95 µm/cell and the “Number of Axis-cylinder Process” value ([1]; 24 hours, 1 µg/ml) was 1.4 ± 0.05 per cell. For the same substance, the “Number of Cells Formed” value ([1]; 24 hours, 10 µg/ml) was 205, the “Ratio of Cells Formed” value ([1]; 24 hours, 10 µg/ml) was 63.9% and the “Total Number of Cells” value ([1]; 24 hours, 10 µg/ml) was 321. For the same substance, the “Length of Axis-cylinder Process” value ([1]; 24 hours, 10 µg/ml) was 114.9 ± 5.98 µm/cell, the “Number of Axis-cylinder Process” value ([1]; 24 hours, 10 µg/ml) was 1.3 ± 0.06 per cell and the “Number of Cells Formed” value ([1]; 24 hours, 100 µg/ml) was “U.C”. The “Total Number of Cells” value ([1]; 24 hours, 100 µg/ml) was “U.C”, the “Length of Axis-cylinder Process” value ([1]; 24 hours, 100 µg/ml) was “U.C” and the “Number of Axis-cylinder Process” value ([1]; 24 hours, 100 µg/ml) was “U.C”. For the same substance, the “Number of Cells Formed” value ([1]; 48 hours, 0.01 µg/ml) was 158, the “Ratio of Cells Formed” value ([1]; 48 hours, 0.01 µg/ml) was 42.6% and the “Total Number of Cells” value ([1]; 48 hours, 0.01 µg/ml) was 371. For the same substance, the “Length of Axis-cylinder Process” value ([1]; 48 hours, 0.01 µg/ml) was 100.4 ± 5.76 µm/cell, the “Number of Axis-cylinder Process” value ([1]; 48 hours, 0.01 µg/ml) was 1.5 ± 0.06 per cell and the “Number of Cells Formed” value ([1]; 48 hours, 0.1 µg/ml) was 153. The “Ratio of Cells Formed” value ([1]; 48 hours, 0.1 µg/ml) was 44.1%, the “Total Number of Cells” value ([1]; 48 hours, 0.1 µg/ml) was 347 and the “Length of Axis-cylinder Process” value ([1]; 48 hours, 0.1 µg/ml) was 90.4 ± 6.06 µm/cell. The “Number of Axis-cylinder Process” value ([1]; 48 hours, 0.1 µg/ml) was 1.2 ± 0.04 per cell, the “Number of Cells Formed” value ([1]; 48 hours, 1 µg/ml) was 182 and the “Ratio of Cells Formed” value ([1]; 48 hours, 1 µg/ml) was 47.4%. The “Total Number of Cells” value ([1]; 48 hours, 1 µg/ml) was 384, the “Length of Axis-cylinder Process” value ([1]; 48 hours, 1 µg/ml) was 106.5 ± 6.40 µm/cell and the “Number of Axis-cylinder Process” value ([1]; 48 hours, 1 µg/ml) was 1.3 ± 0.04 per cell. For the same substance, the “Number of Cells Formed” value ([1]; 48 hours, 10 µg/ml) was 214, the “Ratio of Cells Formed” value ([1]; 48 hours, 10 µg/ml) was 61.8% and the “Total Number of Cells” value ([1]; 48 hours, 10 µg/ml) was 346. The “Length of Axis-cylinder Process” value ([1]; 48 hours, 10 µg/ml) was 122.5 ± 6.99 µm/cell, the “Number of Axis-cylinder Process” value ([1]; 48 hours, 10 µg/ml) was 1.3 ± 0.04 per cell and the “Number of Cells Formed” value ([1]; 48 hours, 100 µg/ml) was “U.C”. The “Total Number of Cells” value ([1]; 48 hours, 100 µg/ml) was “U.C”, the “Length of Axis-cylinder Process” value ([1]; 48 hours, 100 µg/ml) was “U.C” and the “Number of Axis-cylinder Process” value ([1]; 48 hours, 100 µg/ml) was “U.C”.
With “Gal, (ßl-3) GalNAc (ßl-4) NAcNeu(α2-3))Gal(ßl-4)Glc(ßl-l)Ceramide [GM1]” the “Average of Rotational Movement of Rats (Average + S.D.)” value (“Average of Rotational Movement of Rats” below) ([2]; 2W after transplantation) was 7.6+3.6, the “Average of Rotational Movement of Rats” value [2, 3] was 9.8+4.4 and the “Average of Rotational Movement of Rats” value [2, 4] was 9.0+4.1. The “Number of Rotational Movement of Rats” value ([2]; 2W after transplantation) was 3.7 and 10.9 and 8.2, the “Number of Rotational Movement of Rats” value [2, 3] was 14.8 and 6.9 and 7.6 and the “Number of Rotational Movement of Rats” value [2, 4] was 12.5 and 10.1 and 4.5. The “Number of Cells Formed” value ([1]; 24 hours, 0.01 µg/ml) was 145, the “Ratio of Cells Formed” value ([1]; 24 hours, 0.01 µg/ml) was 43.4% and the “Total Number of Cells” value ([1]; 24 hours, 0.01 µg/ml) was 334. The “Length of Axis-cylinder Process” value ([1]; 24 hours, 0.01 µg/ml) was 94.9 ± 6.64 µm/cell, the “Number of Axis-cylinder Process” value ([1]; 24 hours, 0.01 µg/ml) was 1.4 ± 0.05 per cell and the “Number of Cells Formed” value ([1]; 24 hours, 0.1 µg/ml) was 142. For the same substance, the “Ratio of Cells Formed” value ([1]; 24 hours, 0.1 µg/ml) was 47.8%, the “Total Number of Cells” value ([1]; 24 hours, 0.1 µg/ml) was 297 and the “Length of Axis-cylinder Process” value ([1]; 24 hours, 0.1 µg/ml) was 101.1 ± 5.09 µm/cell. The “Number of Axis-cylinder Process” value ([1]; 24 hours, 0.1 µg/ml) was 1.4 ± 0.06 per cell, the “Number of Cells Formed” value ([1]; 24 hours, 1 µg/ml) was 140 and the “Ratio of Cells Formed” value ([1]; 24 hours, 1 µg/ml) was 42.2%. The “Total Number of Cells” value ([1]; 24 hours, 1 µg/ml) was 332, the “Length of Axis-cylinder Process” value ([1]; 24 hours, 1 µg/ml) was 109.7 ± 6.44 µm/cell and the “Number of Axis-cylinder Process” value ([1]; 24 hours, 1 µg/ml) was 1.4 ± 0.06 per cell. For the same substance, the “Number of Cells Formed” value ([1]; 24 hours, 10 µg/ml) was 149, the “Ratio of Cells Formed” value ([1]; 24 hours, 10 µg/ml) was 45.8% and the “Total Number of Cells” value ([1]; 24 hours, 10 µg/ml) was 325. The “Length of Axis-cylinder Process” value ([1]; 24 hours, 10 µg/ml) was 89.3± 4.77 µm/cell, the “Number of Axis-cylinder Process” value ([1]; 24 hours, 10 µg/ml) was 1.4 ± 0.05 per cell and the “Number of Cells Formed” value ([1]; 24 hours, 100 µg/ml) was 172. The “Ratio of Cells Formed” value ([1]; 24 hours, 100 µg/ml) was 55.5%, the “Total Number of Cells” value ([1]; 24 hours, 100 µg/ml) was 310 and the “Length of Axis-cylinder Process” value ([1]; 24 hours, 100 µg/ml) was 90.5 ± 3.88 µm/cell. The “Number of Axis-cylinder Process” value ([1]; 24 hours, 100 µg/ml) was 1.8 ± 0.05 per cell, the “Number of Cells Formed” value ([1]; 48 hours, 0.01 µg/ml) was 194 and the “Ratio of Cells Formed” value ([1]; 48 hours, 0.01 µg/ml) was 58.3%. The “Total Number of Cells” value ([1]; 48 hours, 0.01 µg/ml) was 333, the “Length of Axis-cylinder Process” value ([1]; 48 hours, 0.01 µg/ml) was 93.7 ± 5.07 µm/cell and the “Number of Axis-cylinder Process” value ([1]; 48 hours, 0.01 µg/ml) was 1.4 ± 0.05 per cell. The “Number of Cells Formed” value ([1]; 48 hours, 0.1 µg/ml) was 156, the “Ratio of Cells Formed” value ([1]; 48 hours, 0.1 µg/ml) was 44.7% and the “Total Number of Cells” value ([1]; 48 hours, 0.1 µg/ml) was 349. The “Length of Axis-cylinder Process” value ([1]; 48 hours, 0.1 µg/ml) was 108.8 ± 5.97 µm/cell, the “Number of Axis-cylinder Process” value ([1]; 48 hours, 0.1 µg/ml) was 1.4 ± 0.06 per cell and the “Number of Cells Formed” value ([1]; 48 hours, 1 µg/ml) was 211. For the same substance, the “Ratio of Cells Formed” value ([1]; 48 hours, 1 µg/ml) was 59.9%, the “Total Number of Cells” value ([1]; 48 hours, 1 µg/ml) was 352 and the “Length of Axis-cylinder Process” value ([1]; 48 hours, 1 µg/ml) was 109.2 ± 6.09 µm/cell. For the same substance, the “Number of Axis-cylinder Process” value ([1]; 48 hours, 1 µg/ml) was 1.3 ± 0.04 per cell, the “Number of Cells Formed” value ([1]; 48 hours, 10 µg/ml) was 205 and the “Ratio of Cells Formed” value ([1]; 48 hours, 10 µg/ml) was 62.1%. The “Total Number of Cells” value ([1]; 48 hours, 10 µg/ml) was 330, the “Length of Axis-cylinder Process” value ([1]; 48 hours, 10 µg/ml) was 113.8 ± 5.49 µm/cell and the “Number of Axis-cylinder Process” value ([1]; 48 hours, 10 µg/ml) was 1.3 ± 0.04 per cell. For the same substance, the “Number of Cells Formed” value ([1]; 48 hours, 100 µg/ml) was 193, the “Ratio of Cells Formed” value ([1]; 48 hours, 100 µg/ml) was 60.9% and the “Total Number of Cells” value ([1]; 48 hours, 100 µg/ml) was 317. For the same substance, the “Length of Axis-cylinder Process” value ([1]; 48 hours, 100 µg/ml) was 98.9 ± 5.22 µm/cell and the “Number of Axis-cylinder Process” value ([1]; 48 hours, 100 µg/ml) was 1.5 ± 0.05 per cell.
